According to patent US7122314B2, “Methods for detecting vancomycin-resistant microorganisms and compositions therefor” (ID Biomedical Corporation, priority 2002, dated 2006):

What was measured:
[1] = system: VanA phenotype enterococci; settings: inducible resistance; cited from earlier work
[2] = system: vanA and vanB genes; assay: Non-isotopic CPT-EIA VRE screen of enterococcal isolates; settings: threshold 0.14 OD650; 27 isolates, five operators
Description: This following example describes a rapid single probe non-isotopic CPT assay for screening dual VRE genes (vanA and vanB) from Enterococcal isolates. The non-isotopic VRE assay, which combines CPT with an enzyme immunoassay (CPT-EIA), is schematically illustrated in FIG. 2. Because of the lack of homology between the vanA and vanB genes, it was not possible to find a common sequence that was suitable for a perfectly complementary CPT chimeric probe. It was necessary to design a probe that had two mismatches to vanA in the 5′ DNA arm and two mismatches to vanB in the 3′ DNA arm. In spite of the mismatches, the probe worked well to discriminate vanA and vanB from vanC and VSE isolates.
The dual detection single chimeric probe specific for detecting vanA and vanB genes are synthesized, fluoresceinated and biotinylated as described in Example 1. The purified thermostable RNase H is prepared as described in Example 3.
The sources of Enterococcal isolates and growth conditions are as described in Example 2. Lysis
The cells are lysed by placing a 1-μL loopful of culture growth in 50 μL of Lysis Reagent. […]
After cycling, 3 drops (˜100 μL) of Cycle Stop Reagent containing sheep polyclonal antifluorescein-horseradish peroxidase (HRP) conjugate and 0.16% SDS in Peroxidase Stabilizing Buffer (DAKO, Mississauga, ON) is added to the cycling reaction. […] The plate is read with a Vmax plate reader at OD650. […]

Compound	MIC [1] [µg/mL]	sensitivity [2] [%]	specificity [2] [%]
CN[C@H](CC(C)C)C(=O)N[C@H]1C(=O)N[C@@H](CC(N)=O)C(=O)N[C@H]2C(=O)N[C@H]3C(=O)N[C@H](C(=O)N[C@H](C(=O)O)c4cc(O)cc(O)c4-c4cc3ccc4O)[C@H](O)c3ccc(c(Cl)c3)Oc3cc2cc(c3O[C@@H]2O[C@H](CO)[C@@H](O)[C@H](O)[C@H]2O[C@H]2C[C@](C)(N)[C@H](O)[C@H](C)O2)Oc2ccc(cc2Cl)[C@H]1O [vancomycin]	≥ 64	–	–
5′-CAT GAT GTG TCG GTa aaa TCT GCA ATA GAG A-3′ (DNA CATGATGTGTCGGTAAAATCTGCAATAGAGA; scissile link, further chemistry not given here) [vanB110-m3]	–	98.7	100
teicoplanin	≥ 16	–	–
